According to the supplement of paper PMC10307832:

What was measured:
Test in all cases: relative viability (nuclei count vs DMSO), 5 days (fraction); higher = more cells survive
[1] = system: NCI-H838
In short: (§1)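 Relative viability divides the nuclei count in treated wells by that in vehicle wells. Lung cancer cell lines were seeded in 1536-well plates, dosed by pin tool the next day, and fixed and stained after 5 days in one step with final 0.05% Triton X-100, 1% formaldehyde and 1 ug/ml Hoechst. Dosing was a single drug or a fixed anchor-drug dose plus five library-drug doses (not always all listed) in √10 steps, and values are medians of duplicate plates imaged at 4×.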

[2] = system: CAL-12T
In short: as §1

[3] = system: NCI-H1734
In short: as §1

[4] = system: NCI-H522
In short: as §1

[5] = system: NCI-H3122
In short: as §1

[6] = system: NCI-H1975
In short: as §1

[7] = system: NCI-H647
In short: as §1

[8] = system: SK-LU-1
In short: as §1

[9] = system: LC-2-ad
In short: as §1

[10] = system: H3255
In short: as §1

[11] = system: LU99A
In short: as §1

[12] = system: NCI-H1563
In short: as §1

[13] = system: NCI-H1944
In short: as §1

[14] = system: NCI-H1666
In short: as §1

[15] = system: HCC-15
In short: as §1

[16] = system: PC-3 [JPC-3]
In short: as §1

[17] = system: NCI-H1993
In short: as §1

[18] = system: NCI-H1395
In short: as §1

[19] = system: PC-14
In short: as §1

[20] = system: COR-L 105
In short: as §1

[21] = system: HARA
In short: as §1

COCC1(CO)C(=O)C2CCN1CC2 (stereo unspecified) [PRIMA-1MET] + CCNC(=O)c1noc(-c2cc(C(C)C)c(O)cc2O)c1-c1ccc(CN2CCOCC2)cc1 [Luminespib] (partner 0.01 µM)
relative viability ([1]; first compound 0.2 µM): 0.315 | relative viability ([1]; first compound 0.6325 µM): 0.194 | relative viability ([1]; first compound 2 µM): 0.298 | relative viability ([1]; first compound 6.325 µM): 0.284 | relative viability ([1]; first compound 20 µM): 0.189 | relative viability ([2]; first compound 0.2 µM): 0.363 | relative viability ([2]; first compound 0.6325 µM): 0.383 | relative viability ([2]; first compound 2 µM): 0.547 | relative viability ([2]; first compound 6.325 µM): 0.918 | relative viability ([2]; first compound 20 µM): 0.166 | relative viability ([3]; first compound 0.2 µM): 0.214 | relative viability ([3]; first compound 0.6325 µM): 0.18 | relative viability ([3]; first compound 2 µM): 0.192 | relative viability ([3]; first compound 6.325 µM): 0.172 | relative viability ([3]; first compound 20 µM): 0.0435 | relative viability ([4]; first compound 0.2 µM): 1.09 | relative viability ([4]; first compound 0.6325 µM): 0.899 | relative viability ([4]; first compound 2 µM): 1.1 | relative viability ([4]; first compound 6.325 µM): 0.989 | relative viability ([4]; first compound 20 µM): 0.838 | relative viability ([5]; first compound 0.2 µM): 0.0725 | relative viability ([5]; first compound 0.6325 µM): 0.0963 | relative viability ([5]; first compound 2 µM): 0.0983 | relative viability ([5]; first compound 6.325 µM): 0.0835 | relative viability ([5]; first compound 20 µM): 0.0732 | relative viability ([6]; first compound 0.2 µM): 0.33 | relative viability ([6]; first compound 0.6325 µM): 0.171 | relative viability ([6]; first compound 2 µM): 0.21 | relative viability ([6]; first compound 6.325 µM): 0.252 | relative viability ([6]; first compound 20 µM): 0.154 | relative viability ([7]; first compound 0.2 µM): 0.181 | relative viability ([7]; first compound 0.6325 µM): 0.224 | relative viability ([7]; first compound 6.325 µM): 0.219 | relative viability ([7]; first compound 20 µM): 0.0932 | relative viability ([8]; first compound 0.2 µM): 0.203 | relative viability ([8]; first compound 0.6325 µM): 0.199 | relative viability ([8]; first compound 2 µM): 0.199 | relative viability ([8]; first compound 6.325 µM): 0.212 | relative viability ([8]; first compound 20 µM): 0.137 | relative viability ([9]; first compound 0.2 µM): 1.26 | relative viability ([9]; first compound 2 µM): 0.902 | relative viability ([9]; first compound 6.325 µM): 1.16 | relative viability ([9]; first compound 20 µM): 0.887 | relative viability ([10]; first compound 0.2 µM): 0.933 | relative viability ([10]; first compound 0.6325 µM): 0.813 | relative viability ([10]; first compound 2 µM): 0.741 | relative viability ([10]; first compound 6.325 µM): 0.868 | relative viability ([10]; first compound 20 µM): 0.91 | relative viability ([11]; first compound 0.2 µM): 0.216 | relative viability ([11]; first compound 0.6325 µM): 0.233 | relative viability ([11]; first compound 2 µM): 0.203 | relative viability ([11]; first compound 6.325 µM): 0.221 | relative viability ([11]; first compound 20 µM): 0.0965 | relative viability ([12]; first compound 0.2 µM): 0.595 | relative viability ([12]; first compound 0.6325 µM): 0.539 | relative viability ([12]; first compound 6.325 µM): 0.529 | relative viability ([12]; first compound 20 µM): 0.147 | relative viability ([13]; first compound 0.2 µM): 0.671 | relative viability ([13]; first compound 0.6325 µM): 0.612 | relative viability ([13]; first compound 2 µM): 0.61 | relative viability ([13]; first compound 6.325 µM): 0.685 | relative viability ([13]; first compound 20 µM): 0.724 | relative viability ([14]; first compound 0.2 µM): 1.02 | relative viability ([14]; first compound 0.6325 µM): 0.714 | relative viability ([14]; first compound 2 µM): 0.906 | relative viability ([14]; first compound 6.325 µM): 1.03 | relative viability ([14]; first compound 20 µM): 0.85 | relative viability ([15]; first compound 0.2 µM): 0.264 | relative viability ([15]; first compound 0.6325 µM): 0.232 | relative viability ([15]; first compound 2 µM): 0.393 | relative viability ([15]; first compound 6.325 µM): 0.408 | relative viability ([15]; first compound 20 µM): 0.197 | relative viability ([16]; first compound 0.2 µM): 0.849 | relative viability ([16]; first compound 0.6325 µM): 0.649 | relative viability ([16]; first compound 2 µM): 0.679 | relative viability ([16]; first compound 6.325 µM): 0.731 | relative viability ([16]; first compound 20 µM): 0.546 | relative viability ([17]; first compound 0.2 µM): 1.04 | relative viability ([17]; first compound 0.6325 µM): 0.829 | relative viability ([17]; first compound 2 µM): 0.959 | relative viability ([17]; first compound 6.325 µM): 0.996 | relative viability ([17]; first compound 20 µM): 0.758 | relative viability ([18]; first compound 0.2 µM): 0.845 | relative viability ([18]; first compound 0.6325 µM): 0.676 | relative viability ([18]; first compound 2 µM): 0.677 | relative viability ([18]; first compound 6.325 µM): 0.603 | relative viability ([18]; first compound 20 µM): 0.406 | relative viability ([19]; first compound 0.2 µM): 0.137 | relative viability ([19]; first compound 0.6325 µM): 0.176 | relative viability ([19]; first compound 2 µM): 0.169 | relative viability ([19]; first compound 6.325 µM): 0.182 | relative viability ([19]; first compound 20 µM): 0.129 | relative viability ([20]; first compound 0.2 µM): 0.775 | relative viability ([20]; first compound 0.6325 µM): 0.687 | relative viability ([20]; first compound 2 µM): 0.845 | relative viability ([20]; first compound 6.325 µM): 0.808 | relative viability ([20]; first compound 20 µM): 0.111 | relative viability ([21]; first compound 0.2 µM): 0.619 | relative viability ([21]; first compound 0.6325 µM): 0.0534 | relative viability ([21]; first compound 6.325 µM): 0.675 | relative viability ([21]; first compound 20 µM): 0.654
